In brackets after ≈: the same amount, converted by molar mass. Where two headings read alike, the source gives them in different places.
Key:
[1] = HIV positive, ARC and AIDS individuals; cited from earlier work
[2] = target: T1, HIV-1 protease (Human immunodeficiency virus type 1 group M subtype B, UniProt P04585); assay: HPLC assay of proteolytic activity of recombinant HIV-1 protease (SQNYPIV substrate); format: biochemical; settings: for Inhibition (inhibitory activity of compounds against HIV-1 protease) / inhibition at 17.9 µg/mL: 17.9 μg/ml, HPLC assay; for inhibition at 17.9 µg/mL: read-out: Inhibition (inhibitory activity of compounds against HIV-1 protease); for anti-HIV-1 protease activity (in words): 17.9 μg/ml (tested concentration)
T1 construct: Recombinant HIV-1 protease was prepared from the expression vector, PGEX-PR 107; made in house
Experimental: Recombinant HIV-1 protease was prepared from the expression vector, PGEX-PR 107, in E. coli DII5a and was purified according to the method established in Dr. Wan's laboratory.
The proteolytic activity of HIV-1 PR was measured by Dr. Wan's group at the Biochemistry Department using the synthetic heptapeptide Ser-Gln-Asn-Tyr-Pro-Ile-Val (SQNYPIV), corresponding to the p24-p17 cleavage site in the natural gag precursor, as substrate. The products of cleavage were analyzed by reversed-phase high-performance liquid chromatography (RP-HPLC, Ultrasphere ODS, 5μ, 4.6 mm×15 cm, Beckman, Calif., USA) with a 7-33% acetonitrile gradient in 0.1% trifluoroacetic acid (TFA). Product peak areas were integrated by a data system (Chromatopac C-R3A, Shimadzu, Japan) and compared with the standard peptide SQNY, which is expected to be generated from heptapeptide SQNYPIV after HIV-1 protease digestion. The extinction coefficient of the peptide SQNY was used to estimate the rate of proteolysis of the heptapeptide substrate. The assay was performed in a volume of 140 μl containing 90 pmole of substrate, 2 U of HIV-1 protease and compound solution in 0.1 M NaOAc buffer, pH 5.5, with 1 M (NH4)2 SO4, at 37° C. The reaction which proceeded for 2 h was terminated by the addition of 20 μl of aqueous 10% trifluoroacetic acid. The supernatant obtained by centrifuging at 12,000 rpm for 3 min was then analyzed by the hplc method. The unit of enzyme activity was defined as the amount of enzyme which yields 1 nmol of tetrapeptide SQNY under the above conditions in 1 min.
The proteolytic activity of HIV-1 protease inhibited by the compound was calculated as the activity of the control subtracting that of the sample, and then divided by itself.

[3] = system: HIV; settings: cited from earlier work
[4] = system: HIV; settings: cited from earlier work; remark: listed apart in the source
[5] = system: HIV; settings: cited from earlier work; remark: listed apart in the source
[6] = system: HSV; settings: cited from earlier work
[7] = system: HIV-infected Molt-4 clone No. 8 cells; settings: cited from earlier work
[8] = system: HIV-specific antigen expression; settings: MT-4 cells; cited from earlier work
[9] = system: HIV; settings: MT-4 cells; cited from earlier work
[10] = system: HIV; settings: MT-4 cells, cited from earlier work

Compound: Cc1cn([C@H]2C[C@H](N=[N+]=[N-])[C@@H](CO)O2)c(=O)[nH]c1=O [AZT, 3'-azido-3'-deoxythymidine]
- toxicity [1]: frequently toxic, causing bone marrow suppression resulting in anemia leucopenia and thrombocytopenia

Compound: C[C@@H]1CC[C@]2(C(=O)O)CC[C@]3(C)C(=CC[C@@H]4[C@@]5(C)C[C@@H](O)C(=O)C(C)(C)[C@@H]5CC[C@]43C)[C@@H]2[C@]1(C)O [Compound 1, 2α,19α-Dihydroxy-3-oxo-12-ursen-28-oic acid]
- Inhibition (inhibitory activity of compounds against HIV-1 protease) [2]: 72.19%
- inhibition at 17.9 µg/mL [2]: 72%

Compound: C[C@H]1[C@H](C)CC[C@]2(C(=O)O)CC[C@]3(C)C(=CC[C@@H]4[C@@]5(C)CC[C@H](O)C(C)(C)[C@@H]5CC[C@]43C)[C@H]12 [Compound 2, 3β-Hydroxy-12-ursen-28-oic acid]
- Inhibition (inhibitory activity of compounds against HIV-1 protease) [2]: 85.07%
- inhibition at 17.9 µg/mL [2]: 85%

Compound: C[C@@H]1CC[C@]2(C(=O)O)CC[C@]3(C)C(=CC[C@@H]4[C@@]5(C)CC[C@@H](O)C(C)(C)[C@@H]5CC[C@]43C)[C@@H]2[C@]1(C)O [Compound 3, 3α,19α-Dihydroxy-12-ursen-28-oic acid]
- Inhibition (inhibitory activity of compounds against HIV-1 protease) [2]: 42.18%
- inhibition at 17.9 µg/mL [2]: 42%

Compound: CC1(C)CC[C@]2(C(=O)O)CC[C@]3(C)C(=CC[C@@H]4[C@@]5(C)C[C@@H](O)[C@H](O)C(C)(C)[C@@H]5CC[C@]43C)[C@@H]2C1 [Compound 4, 2α,3β-Dihydroxy-12-oleanen-28-oic acid]
- anti-HIV-1 protease activity (in words) [2]: most active
- inhibition at 17.9 µg/mL [2]: 100%

Compound: C[C@@H]1CC[C@]2(C(=O)O)CC[C@]3(C)C(=CC[C@@H]4[C@@]5(C)C[C@@H](O)[C@@H](O)C(C)(C)[C@@H]5CC[C@]43C)[C@@H]2[C@]1(C)O [Compound 5, 2α,3α,19α-Trihydroxy-12-ursen-28-oic acid]
- anti-HIV-1 protease activity (in words) [2]: did not show activity

Compound: C[C@@H]1CC[C@]2(C(=O)O)CC[C@]3(C)C(=CC[C@@H]4[C@@]5(C)C[C@@H](O)[C@H](O)C(C)(C)[C@@H]5CC[C@]43C)[C@@H]2[C@]1(C)O [Compound 6, 2α,3β,19α-Trihydroxy-12-ursen-28-oic acid]
- Inhibition (inhibitory activity of compounds against HIV-1 protease) [2]: 49.47%
- inhibition at 17.9 µg/mL [2]: 49%

Compound: COc1ccc(-c2cc(=O)c3c(O)cc(O[C@@H]4O[C@H](CO)[C@H](O)[C@H](O)[C@H]4O)cc3o2)cc1 [acacetin-7-O-β-D-galactopyranoside]
- EC50 [3]: 8 µM
- IC50 [3]: 37 µM
- anti-HIV activity (in words) [3]: significant anti-HIV activity
- therapeutic index [3]: 5

Compound: COc1c(O)cc2c(c1O)[C@@H]1O[C@H](CO)[C@@H](O)[C@H](O)[C@H]1OC2=O [bergenin]
- anti-HIV activity (in words) ([4]; in vitro): moderate anti-HIV activity

Compound: C=C(C)[C@@H]1CC[C@]2(C(=O)O)CC[C@]3(C)[C@H](CC[C@@H]4[C@@]5(C)CC[C@H](O)C(C)(C)[C@@H]5CC[C@]43C)[C@@H]12 [betulinic acid]
- inhibition of HIV replication (in words) [5]: potent inhibitors of HIV replication

Compound: CC(C)[C@@H]1CC[C@]2(C(=O)O)CC[C@]3(C)C(CCC4[C@@]5(C)CC[C@H](O)C(C)(C)C5CC[C@]43C)C12 (stereo partly shown) [dihydrobetulinic acid]
- inhibition of HIV replication (in words) [5]: potent inhibitors of HIV replication

Compound: O=Cc1cc(O)c(O)c(O)c1 [gallic aldehyde]
- anti-HSV activity (in words) [6]: strong anti-HSV activity

Compound: CC1(C)[C@@H](O[C@H]2O[C@H](C(=O)O)[C@@H](O)[C@H](O)[C@H]2O[C@@H]2O[C@H](C(=O)O)[C@@H](O)[C@H](O)[C@H]2O)CC[C@]2(C)[C@H]3C(=O)C=C4[C@@H]5C[C@@](C)(C(=O)O)CC[C@]5(C)CC[C@@]4(C)[C@]3(C)CC[C@@H]12 [glycyrrhizin]
- inhibition of giant cell formation [7]: inhibited giant cell formation
- concentration at which HIV-specific antigen expression was inhibited [8]: 0.6 mM
- concentration at which cytopathic effect of HIV was inhibited [9]: 0.3 mM
- concentration at which HIV-induced plaque formation was inhibited [10]: 0.6 mM
- IC50 ([10]; read-out: 50% inhibitory dose, HIV-induced plaque formation): 150 µM

Compound: O=C1O[C@@H]2[C@@H](O)[C@H](O)[C@@H](CO)O[C@H]2c2c1cc(O)c(O)c2O [norbergenin]
- selectivity index ([4]; IC50/EC50 basis not stated): above 25
- EC50 ([4]; in vitro anti-HIV): 20 µg/mL (≈ 63.6 µM)
- IC50 ([4]; in vitro): over 500 μg/ml
- anti-HIV activity (in words) ([4]; in vitro): moderate anti-HIV activity

Compound: CC(=O)[C@@H]1CC[C@]2(C(=O)O)CC[C@]3(C)[C@H](CC[C@@H]4[C@@]5(C)CC[C@H](O)C(C)(C)[C@@H]5CC[C@]43C)[C@@H]12 [platanic acid]
- inhibition of HIV replication (in words) [5]: potent inhibitors of HIV replication

Compound: geponin
- anti-HSV activity (in words) [6]: strong anti-HSV activity

— patent publication US5916919A, “Retrovirus protease inhibitors” (priority 1997, dated 1999)
